Experimental data as given in ChEMBL document CHEMBL1148176, “Polycyclic guanidine alkaloids from the marine sponge Crambe crambe and Ca++ channel blocker activity of crambescidin 816” (J Nat Prod, 1993).
Active and inactive are the calls of the source. The rule behind the calls is not given here.

How the values were obtained:
Jejunum [1] = assay: Inhibition of acetylcholine-induced contraction in Sprague-Dawley rat jejunum at 1.2 pM pretreated for 3 mins before acetylcholine challenge; assay type: functional
L-type calcium channel = L-type calcium channel (Mus musculus, UniProt Q01815+Q02789+Q99246+Q9JIS7); assay: Antagonist activity at voltage-dependent L-type calcium channel in mouse neurobalstoma-rat glioma NG 108-15 hybrid cells assessed as inhibition of KCl-induced increase in intracellular calcium level pretreated for 3 mins before KCl challenge; assay type: functional, cell-based
Jejunum [2] = assay: Inhibition of acetylcholine-induced contraction in Sprague-Dawley rat jejunum at 6.0 pM pretreated for 3 mins before acetylcholine challenge; assay type: functional
Jejunum [3] = assay: Inhibition of Sprague-Dawley rat jejunum contraction at 0.6 to 6.0 pM; assay type: functional, tissue-based
Jejunum [4] = assay: Inhibition of acetylcholine-induced contraction in Sprague-Dawley rat jejunum pretreated for 3 mins before acetylcholine challenge; assay type: functional, tissue-based
Jejunum [5] = assay: Inhibition of acetylcholine-induced contraction in Sprague-Dawley rat jejunum at 0.6 pM pretreated for 3 mins before acetylcholine challenge; assay type: functional
Ephydatia fluviatilis = assay: Inhibition of reaggregation of cells in Ephydatia fluviatilis; assay type: functional
Ileum = assay: Inhibition of acetylcholine-induced contraction in guinea pig ileum; assay type: functional, tissue-based; conditions: Cavia porcellus
[6] = Cytotoxicity against human HCT16 cells; assay type: functional, cell-based
Poecilia reticulata = assay: Toxicity against Lebistes reticulatus at 0.2 mg/l; assay type: organism-based; conditions: in vivo

In the case of `CC[C@H]1C=CCC[C@]2(C[C@H]3CC[C@]4(O)[C@H](C(=O)OCCCCCCCCCCCCCCCC(=O)N(CCCN)C[C@@H](O)CCN)[C@@]5(CCC[C@@H](C)O5)NC(=[N+]34)N2)O1.[Cl-]` [CRAMBESCIDIN 816 HYDROCHLORIDE], the inhibition at 1.2 pM (Jejunum [1]) is reported as 25%, the IC50 (L-type calcium channel) is reported as 1.5 ×10⁻⁴ microM and the Activity (L-type calcium channel; mouse) is reported as “Dose-dependent effect”. The inhibition at 6 pM (Jejunum [2]) was 30%, the Activity (Jejunum [3]) was “inactive” and the Activity (Jejunum [4]) was “Dose-dependent effect”. For the same compound, the inhibition at 600 fM (Jejunum [5]) was 18%, the Activity (Ephydatia fluviatilis) was 1.2 mM and the Activity (Ileum) was “Active”. For the same compound, the IC50 [6] was 0.24 µg/mL and the Activity (Poecilia reticulata) was “Toxic”.
With `CCCCCCCCCCCC1N=C(N)N2CCCC2=C1C(=O)OCCCCNC(=N)N.Cl` (stereo not drawn) [CRAMBINE A] the Activity (Ephydatia fluviatilis) was 2.3 mM and the Activity (Poecilia reticulata) was “Toxic”.
In the case of `CCCCCCCCCCC[C@@H]1N=C(N)N[C@]2(CCCO2)[C@@H]1C(=O)OCCCCCNC(=N)N.Cl` [CRAMBINE B], the Activity (Ephydatia fluviatilis) is reported as 2 mM and the Activity (Poecilia reticulata) is reported as “Toxic”.
With `CCCCCCCCCCCC1N=C(N)NC(CCCO)=C1C(=O)OCCCCCNC(=N)N.Cl` (stereo not drawn) [CRAMBINE C1] the Activity (Ephydatia fluviatilis) was 2.1 ×10⁻² M and the Activity (Poecilia reticulata) was “Toxic”.
`COC(=O)C1=C(C)NC(C)=C(C(=O)OC)C1c1ccccc1[N+](=O)[O-]` [NIFEDIPINE] gave an IC50 (L-type calcium channel) of 1.2 µM.
